Molecular target: Telomerase reverse transcriptase (Homo sapiens, UniProt O14746)
Experiment: Inhibitory activity against telomerase extracted from HCT 116 cell lines
Assay type: cell-free

Sequence of Telomerase reverse transcriptase (O14746 whole entry): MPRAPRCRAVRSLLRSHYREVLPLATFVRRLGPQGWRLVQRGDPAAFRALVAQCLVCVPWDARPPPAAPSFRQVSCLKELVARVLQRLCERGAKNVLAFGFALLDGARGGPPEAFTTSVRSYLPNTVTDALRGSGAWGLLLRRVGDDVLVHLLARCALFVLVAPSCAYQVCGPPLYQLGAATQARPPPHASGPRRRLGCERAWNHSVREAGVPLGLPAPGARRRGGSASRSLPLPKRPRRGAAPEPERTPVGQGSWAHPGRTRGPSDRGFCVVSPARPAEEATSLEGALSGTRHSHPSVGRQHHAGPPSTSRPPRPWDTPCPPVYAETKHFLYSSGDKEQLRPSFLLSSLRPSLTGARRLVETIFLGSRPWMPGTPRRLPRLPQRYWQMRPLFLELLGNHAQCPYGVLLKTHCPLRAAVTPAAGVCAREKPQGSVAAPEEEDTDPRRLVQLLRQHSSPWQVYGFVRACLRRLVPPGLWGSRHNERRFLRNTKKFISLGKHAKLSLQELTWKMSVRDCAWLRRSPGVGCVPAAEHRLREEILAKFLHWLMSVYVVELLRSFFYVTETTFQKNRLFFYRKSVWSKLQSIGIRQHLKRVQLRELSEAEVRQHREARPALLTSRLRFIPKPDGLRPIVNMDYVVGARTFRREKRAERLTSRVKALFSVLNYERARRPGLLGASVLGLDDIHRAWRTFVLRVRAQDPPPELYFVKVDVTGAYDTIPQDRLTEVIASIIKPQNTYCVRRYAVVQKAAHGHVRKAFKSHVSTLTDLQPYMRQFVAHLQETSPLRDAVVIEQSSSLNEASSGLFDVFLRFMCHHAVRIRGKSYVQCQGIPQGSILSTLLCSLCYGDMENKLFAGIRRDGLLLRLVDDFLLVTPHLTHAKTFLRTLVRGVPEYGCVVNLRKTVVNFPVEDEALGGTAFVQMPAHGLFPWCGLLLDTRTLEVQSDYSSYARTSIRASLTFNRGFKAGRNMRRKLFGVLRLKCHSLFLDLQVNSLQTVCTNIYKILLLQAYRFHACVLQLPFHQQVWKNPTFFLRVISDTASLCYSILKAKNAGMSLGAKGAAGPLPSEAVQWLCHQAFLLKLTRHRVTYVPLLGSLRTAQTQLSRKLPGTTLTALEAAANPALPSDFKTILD

O=C(N[C@H](Cc1c[nH]c2ccccc12)C(=O)NCCCCCCCCCCCCOP(=O)(O)Oc1ccccc1Cl)c1ccccc1
IC50: 7.3 µM

CC(C)(C)OC(=O)N[C@H](CCC(=O)OCc1ccccc1)C(=O)N[C@H](Cc1c[nH]c2ccccc12)C(=O)NCCCCCCCCCCCCOP(=O)(O)Oc1ccccc1Cl
IC50: 6.4 µM

N[C@H](Cc1cc2ccccc2[nH]1)C(=O)N[C@@H](Cc1c[nH]c2ccccc12)C(=O)NCCCC(=O)NCC(=O)NCCCCCCOP(=O)(O)Oc1ccccc1Cl (racemic)
IC50: > 100 µM

Cc1cn(CCCn2cc(CC(=O)NCCCC(=O)NCC(=O)NCCCCCCOP(=O)(O)Oc3ccccc3Cl)c3ccccc32)c2ccccc12
IC50: > 100 µM

CC(C)(C)OC(=O)N[C@H](CCC(=O)O)C(=O)N[C@H](Cc1c[nH]c2ccccc12)C(=O)NCCCCCCCCCCCCOP(=O)(O)Oc1ccccc1Cl
IC50: > 100 µM

CC(C)(C)OC(=O)N[C@@H](Cc1cc2ccccc2[nH]1)C(=O)N[C@@H](Cc1c[nH]c2ccccc12)C(=O)NCCCC(=O)NCC(=O)NCCCCCCOP(=O)(O)Oc1ccccc1Cl
IC50: > 100 µM

CC(=O)N[C@H](Cc1cc2ccccc2[nH]1)C(=O)N[C@H](Cc1c[nH]c2ccccc12)C(=O)NCCCCCCCCCCCCOP(=O)(O)Oc1ccccc1Cl
IC50: 22.9 µM

N[C@H](Cc1c[nH]c2ccccc12)C(=O)NCCCCCCCCCCCCOP(=O)(O)Oc1ccccc1Cl
IC50: 45.2 µM

CC(C)(C)OC(=O)N[C@@H](Cc1cc2ccccc2[nH]1)C(=O)N[C@H](Cc1c[nH]c2ccccc12)C(=O)NCCCC(=O)NCC(=O)NCCCCCCOP(=O)(O)Oc1ccccc1Cl
IC50: > 100 µM

CC(C)(C)OC(=O)N[C@H](Cc1ccccc1)C(=O)N[C@H](Cc1c[nH]c2ccccc12)C(=O)NCCCCCCCCCCCCOP(=O)(O)Oc1ccccc1Cl
IC50: 6.8 µM

N[C@H](Cc1ccccc1)C(=O)N[C@H](Cc1c[nH]c2ccccc12)C(=O)NCCCCCCCCCCCCOP(=O)(O)Oc1ccccc1Cl
IC50: 22.1 µM

N[C@H](CCC(=O)O)C(=O)N[C@H](Cc1c[nH]c2ccccc12)C(=O)NCCCCCCCCCCCCOP(=O)(O)Oc1ccccc1Cl
IC50: > 100 µM

CC(C)(C)OC(=O)N[C@@H](Cc1ccccc1)C(=O)N[C@H](Cc1c[nH]c2ccccc12)C(=O)NCCCCCCCCCCCCOP(=O)(O)Oc1ccccc1Cl
IC50: > 100 µM

O=C(Cc1c[nH]c2ccccc12)NCCCCCCCCCCCCOP(=O)(O)Oc1ccccc1Cl
IC50: 33.9 µM

O=C(N[C@H](Cc1c[nH]c2ccccc12)C(=O)NCCCCCCCCCCCCOP(=O)(O)Oc1ccccc1Cl)OCc1ccccc1
IC50: 3.6 µM

O=C(CCCc1c[nH]c2ccccc12)NCCCCCCCCCCCCOP(=O)(O)Oc1ccccc1Cl
IC50: 29.7 µM

N[C@H](Cc1cc2ccccc2[nH]1)C(=O)N[C@H](Cc1c[nH]c2ccccc12)C(=O)NCCCCCCCCCCCCOP(=O)(O)Oc1ccccc1Cl
IC50: 13.7 µM

N[C@H](Cc1cc2ccccc2[nH]1)C(=O)N[C@H](Cc1c[nH]c2ccccc12)C(=O)NCCCC(=O)NCC(=O)NCCCCCCOP(=O)(O)Oc1ccccc1Cl
IC50: > 100 µM

O=C(N[C@H](Cc1c[nH]c2ccccc12)C(=O)NCCCCCCCCCCCCOP(=O)(O)Oc1ccccc1Cl)[C@H]1CCCN1
IC50: > 100 µM

CC(C)(C)OC(=O)N[C@H](Cc1c[nH]c2ccccc12)C(=O)NCCCCCCOP(=O)(O)Oc1ccccc1Cl
IC50: > 100 µM

CC(C)(C)OC(=O)N[C@H](Cc1cc2ccccc2[nH]1)C(=O)N[C@H](Cc1c[nH]c2ccccc12)C(=O)NCCCCCCCCCCCCOP(=O)(O)Oc1ccccc1Cl
IC50: 18.9 µM

CC(C)(C)OC(=O)N[C@@H](Cc1cc2ccccc2[nH]1)C(=O)N[C@@H](Cc1c[nH]c2ccccc12)C(=O)NCCCCCCCCCCCCOP(=O)(O)Oc1ccccc1Cl
IC50: 0.3 µM

O=C(CNC(=O)OCc1ccccc1)N[C@H](Cc1c[nH]c2ccccc12)C(=O)NCCCCCCCCCCCCOP(=O)(O)Oc1ccccc1Cl
IC50: 12.1 µM

CC(C)(C)OC(=O)N[C@@H](Cc1c[nH]c2ccccc12)C(=O)NCCCCCCCCCCCCOP(=O)(O)Oc1ccccc1Cl
IC50: 20.7 µM

N[C@@H](Cc1c[nH]c2ccccc12)C(=O)NCCCCCCCCCCCCOP(=O)(O)Oc1ccccc1Cl
IC50: 15.1 µM

N[C@@H](Cc1cc2ccccc2[nH]1)C(=O)N[C@@H](Cc1c[nH]c2ccccc12)C(=O)NCCCC(=O)NCC(=O)NCCCCCCOP(=O)(O)Oc1ccccc1Cl
IC50: > 100 µM

CC(C)(C)OC(=O)N[C@H](Cc1cc2ccccc2[nH]1)C(=O)N[C@H](Cc1c[nH]c2ccccc12)C(=O)NCCCC(=O)NCC(=O)NCCCCCCOP(=O)(O)Oc1ccccc1Cl
IC50: > 100 µM

N[C@H](Cc1c[nH]c2ccccc12)C(=O)NCCCCCCOP(=O)(O)Oc1ccccc1Cl
IC50: > 100 µM

CC(C)(C)OC(=O)N[C@H](Cc1cc2ccccc2[nH]1)C(=O)N[C@@H](Cc1c[nH]c2ccccc12)C(=O)NCCCC(=O)NCC(=O)NCCCCCCOP(=O)(O)Oc1ccccc1Cl (mixture of isomers)
IC50: > 100 µM

Cc1cn(CCCn2cc(CC(=O)NCCCCCCCCCCCCOP(=O)(O)Oc3ccccc3Cl)c3ccccc32)c2ccccc12
IC50: 3.6 µM

CC(=O)N[C@H](Cc1c[nH]c2ccccc12)C(=O)NCCCCCCCCCCCCOP(=O)(O)Oc1ccccc1Cl
IC50: 90.7 µM

N[C@@H](Cc1cc2ccccc2[nH]1)C(=O)N[C@H](Cc1c[nH]c2ccccc12)C(=O)NCCCC(=O)NCC(=O)NCCCCCCOP(=O)(O)Oc1ccccc1Cl
IC50: > 100 µM

CC(C)(C)OC(=O)N[C@H](Cc1c[nH]c2ccccc12)C(=O)NCCCCCCCCCCCCOP(=O)(O)Oc1ccccc1Cl
IC50: 18.3 µM

CC(C)(C)OC(=O)N1CCC[C@@H]1C(=O)N[C@H](Cc1c[nH]c2ccccc12)C(=O)NCCCCCCCCCCCCOP(=O)(O)Oc1ccccc1Cl
IC50: 9.5 µM

O=C(N[C@H](Cc1ccccc1)C(=O)NCCCCCCCCCCCCOP(=O)(O)Oc1ccccc1Cl)OCc1ccccc1
IC50: > 100 µM

CC(C)(C)OC(=O)N[C@@H](Cc1cc2ccccc2[nH]1)C(=O)N[C@H](Cc1c[nH]c2ccccc12)C(=O)NCCCCCCCCCCCCOP(=O)(O)Oc1ccccc1Cl (mixture of isomers)
IC50: > 100 µM

Cc1cn(CCCn2cc(CC(=O)NCCCCCCOP(=O)(O)Oc3ccccc3Cl)c3ccccc32)c2ccccc12
IC50: 29.4 µM

N[C@@H](Cc1cc2ccccc2[nH]1)C(=O)N[C@@H](Cc1c[nH]c2ccccc12)C(=O)NCCCCCCCCCCCCOP(=O)(O)Oc1ccccc1Cl
IC50: 11.1 µM

Cc1cn(CCCn2cc(CC(=O)NCCOCCOCCOCCOP(=O)(O)Oc3ccccc3Cl)c3ccccc32)c2ccccc12
IC50: > 100 µM

CC(C)(C)OC(=O)N[C@H](Cc1cc2ccccc2[nH]1)C(=O)N[C@@H](Cc1c[nH]c2ccccc12)C(=O)NCCCCCCCCCCCCOP(=O)(O)Oc1ccccc1Cl (racemic)
IC50: > 100 µM

N[C@H](Cc1cc2ccccc2[nH]1)C(=O)N[C@@H](Cc1c[nH]c2ccccc12)C(=O)NCCCCCCCCCCCCOP(=O)(O)Oc1ccccc1Cl (mixture of isomers)
IC50: 10.6 µM

N[C@@H](Cc1ccccc1)C(=O)N[C@H](Cc1c[nH]c2ccccc12)C(=O)NCCCCCCCCCCCCOP(=O)(O)Oc1ccccc1Cl (mixture of isomers)
IC50: > 100 µM

Cc1cn(CCCn2cc(CC(=O)NCCCC(=O)N3CCCC3C(=O)NCCCCCCOP(=O)(O)Oc3ccccc3Cl)c3ccccc32)c2ccccc12 (stereo not drawn)
IC50: 46.9 µM

— ChEMBL document CHEMBL1133972, “Solid-Phase synthesis of a library constructed of aromatic phosphate, long alkyl chains and tryptophane components, and identification of potent dipeptide telomerase inhibitors” (Bioorg Med Chem Lett, 2001)
